Data on 1 molecule can be found in patent publication US20250288570A1, “TREATMENT OF NEUROLOGICAL DISORDERS” (Praxis Precision Medicines, Inc., priority 2022, published 2025).

The target in series [1] is T1, human Nav1.6 (Homo sapiens, UniProt Q9UQD0).
T1 construct: HEK-293 cell lines stably expressing human Nav1.6 (NP_055006) were used; expressed in transfected cells
The series can be described thus: Peak INa tonic block (TB), automated patch clamp in HEK cells. Particulars: ratio of peak INa (TB) to persistent INa IC50. It is filed as cell-based. On the technique in general: In patch-clamp work, channel activity is measured electrically.

Series [2] has as its system multiple NaV isoforms and orthologs. The series can be described thus: ATX-II induced persistent INa of multiple NaV isoforms and orthologs. It is filed as cell-based.
Series [3] relates to scPTZ-induced seizures in CD-1 mice. The series can be described thus: Subcutaneous pentylenetetrazole (scPTZ) induced seizure test. It counts as in vivo, mouse. On the procedure:
The subcutaneous pentylenetetrazole (scPTZ) test is a validated model for evaluating the anti-seizure potential of compounds. The positive control valproate is an approved anti-seizure medicine (ASM). This study evaluated the efficacy of Compound 1 to attenuate scPTZ-induced seizures in wildtype CD-1 mice. Doses of Compound 1 used were 1 mg/kg, 3 mg/kg, 6 mg/kg and 10 mg/kg administered orally. Valproate (600 mg/kg, administered intraperitoneally) was used as a positive control as it has a broad spectrum of anticonvulsant activity.
Male CD-1 mice (Charles River Laboratories, St. Constant, Quebec, Canada) were used for the study. Body weights at the time the experiment was carried out were between 27 and 39 grams. The mice were group-housed in polycarbonate cages according to standard operating procedures. Animals were maintained on a 12 hour light/12 hour dark cycle, with all experimental activities occurring during the light phase. Food and water were available ad libitum. […]
Immediately prior to the administration of PTZ, a brief neurological assessment was performed. Each animal was visually assessed and received a score from 0 to 3 according to the following scoring system: neurological score of 0 corresponds to a normal status; neurological score of 1 corresponds to a modest decrease in spontaneous activity; neurological score of 2 corresponds to a marked decrease in spontaneous activity; and neurological score of 3 corresponds to loss of righting reflex.
PTZ (85 mg/kg, 10 mL/kg) was administered as a subcutaneous (s.c.) injection. […] The latency to generalized clonic seizure was recorded. Seizures were also scored using a seizure scale. Mice were scored with the following stages: 0) no seizure activity, 1) myoclonic jerks with “flat body posture”, 2) generalized clonus with loss of posture lasting ˜2 s, 3) generalized clonus with loss of posture lasting ˜10 s or 4) tonic hindlimb extension. Seizure scores were used as a qualitative measure to assess seizure incidence and were not used as a quantitative measure of pharmacological activity. […]

T1 sequence (Q9UQD0 whole entry): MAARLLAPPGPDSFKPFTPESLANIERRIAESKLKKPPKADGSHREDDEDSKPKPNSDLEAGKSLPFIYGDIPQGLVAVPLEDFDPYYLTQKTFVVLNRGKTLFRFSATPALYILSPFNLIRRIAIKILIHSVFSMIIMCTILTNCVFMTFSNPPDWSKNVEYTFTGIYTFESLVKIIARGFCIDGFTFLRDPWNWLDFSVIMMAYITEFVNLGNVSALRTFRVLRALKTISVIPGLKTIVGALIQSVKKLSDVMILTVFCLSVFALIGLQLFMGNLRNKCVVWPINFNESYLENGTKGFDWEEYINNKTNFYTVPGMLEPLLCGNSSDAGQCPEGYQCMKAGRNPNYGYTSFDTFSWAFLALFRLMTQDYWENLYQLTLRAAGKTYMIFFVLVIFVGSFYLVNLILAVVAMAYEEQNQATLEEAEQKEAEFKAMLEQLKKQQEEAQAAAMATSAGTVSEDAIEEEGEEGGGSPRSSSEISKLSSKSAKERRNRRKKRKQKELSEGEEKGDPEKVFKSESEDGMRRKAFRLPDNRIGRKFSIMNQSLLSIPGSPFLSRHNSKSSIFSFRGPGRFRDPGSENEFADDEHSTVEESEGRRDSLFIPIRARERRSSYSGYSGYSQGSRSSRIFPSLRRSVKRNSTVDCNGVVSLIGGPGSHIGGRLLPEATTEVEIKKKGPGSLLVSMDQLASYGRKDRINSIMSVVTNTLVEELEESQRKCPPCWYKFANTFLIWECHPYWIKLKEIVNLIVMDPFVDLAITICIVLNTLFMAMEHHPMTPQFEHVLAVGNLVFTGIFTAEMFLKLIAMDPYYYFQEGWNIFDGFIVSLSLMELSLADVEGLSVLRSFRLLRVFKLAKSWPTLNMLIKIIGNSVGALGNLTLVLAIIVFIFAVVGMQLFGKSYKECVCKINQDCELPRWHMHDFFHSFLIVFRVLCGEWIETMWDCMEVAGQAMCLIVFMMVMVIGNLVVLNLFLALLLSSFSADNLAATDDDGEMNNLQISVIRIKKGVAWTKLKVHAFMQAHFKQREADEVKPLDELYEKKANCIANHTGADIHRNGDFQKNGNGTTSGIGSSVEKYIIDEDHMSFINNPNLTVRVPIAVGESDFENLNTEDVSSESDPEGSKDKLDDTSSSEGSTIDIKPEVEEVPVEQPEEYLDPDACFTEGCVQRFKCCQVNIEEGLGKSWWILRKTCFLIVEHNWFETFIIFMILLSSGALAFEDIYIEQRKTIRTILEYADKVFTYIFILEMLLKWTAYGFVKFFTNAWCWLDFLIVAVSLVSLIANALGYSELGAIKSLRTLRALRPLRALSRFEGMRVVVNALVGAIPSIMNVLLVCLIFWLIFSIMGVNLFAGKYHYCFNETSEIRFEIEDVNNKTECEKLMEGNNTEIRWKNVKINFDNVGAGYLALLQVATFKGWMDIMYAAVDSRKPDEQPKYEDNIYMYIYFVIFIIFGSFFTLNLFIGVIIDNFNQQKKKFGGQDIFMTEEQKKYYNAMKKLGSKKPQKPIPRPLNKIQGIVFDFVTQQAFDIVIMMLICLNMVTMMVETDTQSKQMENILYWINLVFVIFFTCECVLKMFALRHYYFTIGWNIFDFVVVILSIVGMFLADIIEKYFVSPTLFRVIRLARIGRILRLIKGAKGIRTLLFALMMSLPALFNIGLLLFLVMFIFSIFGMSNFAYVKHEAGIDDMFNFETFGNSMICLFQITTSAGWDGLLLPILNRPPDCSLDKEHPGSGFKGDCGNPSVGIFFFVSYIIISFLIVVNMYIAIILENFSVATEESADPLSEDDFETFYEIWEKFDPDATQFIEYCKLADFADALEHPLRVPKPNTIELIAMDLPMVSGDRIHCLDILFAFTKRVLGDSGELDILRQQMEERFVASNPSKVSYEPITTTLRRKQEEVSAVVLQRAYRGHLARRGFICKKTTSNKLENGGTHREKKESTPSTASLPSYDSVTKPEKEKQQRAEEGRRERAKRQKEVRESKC

For `CCOC(F)(F)c1nnc2ccc(-c3cnc(OCC(F)(F)F)c(F)c3)cn12` [Compound 1], in series [1], the “Peak INa TB Ratio to Pers. INa” value was 68. In series [2], the “inhibition of persistent INa at other isoforms and orthologs (in words)” value was “inhibits ATX-II induced persistent INa expressed by multiple NaV isoforms and orthologs”. The “spontaneous activity (in words)” value in series [3] (10 mg/kg) is on record as “modest reduction in spontaneous activity was observed in a single mouse”. Further, the “protection in PTZ acute seizure model (in words)” value in series [3] (1-10 mg/kg p.o.) is “protected from generalized clonus”. The “neurological scores (in words)” value in series [3] (dose range tested) is given as “Neurological scores for all but one mouse treated with Compound 1 were normal”.
